The values below are quoted from earlier work in patent publication US4296101A, “Antibiotic kristenin” (E. R. Squibb & Sons, Inc., priority 1978, dated 1981).

For this data set, the system named is gram positive bacteria. As to conditions: stated by Okazaki et al., Journal of Antibiotics, Vol. 28, No. 9, pages 717-719.

For the molecule `CCC(N)C(O)C(O)C(C)C(=O)NC(CC(C)C)C1Cc2cccc(O)c2C(=O)O1` (stereo not shown) [baciphelacin], the “active against gram positive bacteria” value is “active against gram positive bacteria”.
